Data set [1] relates to healthy volunteers. The data set can be described thus: Euglycaemic glucose clamp after single SC dose in healthy volunteers. It is filed as in vivo, human. How it is done:
In all treatment periods, subjects undergo a euglycaemic clamp procedure for up to 24/36 hours following each insulin compound injection. Glucose infusion rates (GIR) are adjusted to maintain euglycaemia, with the documented GIR over time providing the GD measure of insulin action. The aim of the euglycaemic glucose clamp is to maintain euglycaemia through glucose infusion after the administration of a dose of an insulin compound. It is assumed that endogenous insulin secretion and hepatic glucose output are minimal and that any glucose that is translocated out of the glucose space (i.e., glucose metabolised) is the direct consequence of the administered exogenous insulin. The GIR in this case will be the glucodynamic (GD) measure of the insulin action over time. All glucose clamp studies are performed after an overnight fast of approximately 8 hours. On the morning of the study, a small catheter is placed into a vein of one arm, ideally in the ante-cubital fossa, for administration of 20% dextrose solution (buffered to near neutral pH) under the control of a volumetric pump. Another catheter is placed, ideally in the wrist or hand for venous glucose sampling. This area is heated with a warming device to approximately 55-60° C. for sampling arterialized venous blood. Blood samples are obtained at the bedside for immediate determination of whole blood glucose concentrations using an automated glucose oxidase technique. After basal blood sampling and a stabilization period of approximately 30 minutes, each subject receives a dose of insulin compound administered subcutaneously. The start of the subcutaneous injection of an insulin compound is defined as time zero. Following completion of dosing, in conjunction with frequent blood sampling for measurement of blood glucose, glucose is infused intravenously at a variable rate in order to maintain euglycaemia for up to 24 or 36 hours after insulin administration.
Blood sampling occurs approximately every 10 minutes for approximately 30 minutes prior to dosing and continued every 5-10 minutes for the first 2 hours after dosing (with the option to sample as frequently as every 2.5 minutes), and then reduced to 10-30 minute intervals up to the end of clamp.
During the glucose clamp, the glucose infusion rate is adjusted to maintain a pre-determined target blood glucose concentration for the individual subject. Preferably, the target concentration is close to the fasting blood glucose. The aim of the glucose clamp procedure is to maintain the blood glucose concentrations within +5% of the pre-dose target value, which is defined as 5 mg/dL below the mean fasting blood glucose. Thus, blood glucose concentrations are kept constant while the GIR varied. […]

For data set [2] the following is noted: calculated from published PK profiles; cited from earlier work.

“LY: 20 kDa PEGylated insulin lispro, about 95% or more at B28, prepared essentially as in Example 9”: in data set [1] (Part C, 0.5 mg/kg SC), the “time GD maintained” value was “greater than 36 hours”. For the same substance, the “GIR profile versus peak GIR response for glargine” value in data set [1] (Part C, 0.5 mg/kg SC, glargine 0.5 U/kg) was “exceeded the peak GIR response for glargine”. Moreover, the “within subject variability in the glucodynamics” value in data set [1] (humans) is listed as “less than 30%”. Moreover, the duration of action entry in data set [1] (humans, versus insulin glargine (FIG. 2)) was “longer than that of insulin glargine”.

In the case of insulin glargine, in data set [2], the “peak-trough (PT) ratio” value was 1.2-2.6.

The values above are taken from US20110105392A1 (ELI LILLY AND COMPANY, priority 2008, published 2011).
